Measurements: article PMC10299677, “Fluorinated Benzofuran and Dihydrobenzofuran as Anti-Inflammatory and Potential Anticancer Agents” (International Journal of Molecular Sciences, 2023)
Entries after “also recorded” stand apart in the source; their conditions may differ.

Legend:
[1] = tested on: zymosan-induced air pouch inflammation; experiment: Subcutaneous zymosan-induced air pouch model of inflammation; format: in vivo, C57BL/6J mice; conditions: 50 nmol per pouch co-injected with 1% zymosan, 24 h
Protocol: Figure 5 Effect of fluorinated benzofuran and dihydrobenzofuran on inflammation in the zymosan-treated sterile air pouch model in mice. (A) A timeline for the zymosan-induced inflammation experiments of the air pouch model in C57/BL6 mice. The pouch was formed on day 1 and refilled on day 4 with sterile air. Mice were injected at day 6 with 1% zymosan (w/v in saline), or 0.5 mL of saline for control mice. An amount of 50 nmol of compounds 2, 3, 5, and 6, or vehicle, were co-injected into the air pouch. At 24 h post-treatment, exudates were collected. (B) Recruited cells in the pouch and PGE2 production. (C) Gene expressions of inflammatory enzymes Ptgs2 and Nos2, proinflammatory cytokines Il1α and Il1β, and chemokines Ccl3 and Ccl4. Data correspond to the mean ± SEM (n = 6–8 mice per group); * p < 0.05 compared to the zymosan-treated cells (one-way ANOVA followed by Dunnett’s test).
C57BL/6J female mice (8-week-old, 20–25 g) were kept at 5 per cage on a 12 h light–dark cycle with cotton cocoon as enrichment in temperature- and humidity-controlled rooms. Mice were provided with food and water ad libitum, and food intake and body weight were monitored throughout the study period. Approval for use of animals was obtained from the IACUC (16-11-393). Dorsal air pouches were created in mice as previously described. Six days after the initial injection of sterile air, 0.5 mL of saline containing 100 µM of benzofuran compounds 2, 3, 5, or 6 (50 nmol per pouch) or 0.2% DMSO as vehicle was co-injected in the pouch with 0.5 mL of 0.9% saline (for the control group) or 0.5 mL of 1% zymosan (w/v, for zymosan and zymosan + compound) (Sigma-Aldrich, 400140). At 24 h after treatment, the animals were sacrificed by CO2 inhalation and the air pouch washed, the exudates collected, and the cell number determined. As previously reported, the main subtype of leukocytes present in the air pouch were neutrophils (75%) and monocytes–macrophages (12–15%), as determined by selective flow cytometry. The concentrations of PGE2, CCL2, and IL-6 and the gene expression were assessed as described previously.
For gene expression, RT-PCR was performed as described previously. Briefly, cell pellets obtained by centrifugation of air pouch exudates at 300× g for 5 min at 4 °C were suspended in TriPure (Sigma Aldrich 11667165001). An amount of 2 μg of total RNA was reverse-transcribed using iScript cDNA synthesis kit (Bio-Rad Laboratories, 1708891). RT-PCR was carried out on CFX384 cycler using iTaq Universal SYBR Green Supermix kit (Bio-Rad Laboratories, 1725121) and the primers obtained from TIB Molbiol (Berlin, Germany). Oligonucleotide sequences were according to the references, except for Ptgs2 and Nos2, which were as follows: Ptgs2 (F): […]; Ptgs2 (R): […]; Nos2 (F): […]; Nos2 (R): […]. Gene expression was calculated using ^ΔΔCT method relative to the housekeeping gene 18S.

COX-2 = target: T1, COX-2 (Mus musculus, UniProt Q05769); experiment: COX-2 activity: PGE2 from exogenous arachidonic acid in aspirin-pretreated, 24 h LPS-treated macrophages; format: cell-based, C57BL/6J mice; conditions: 10 µM arachidonic acid; for effect on COX-2 activity: 50 µM, aspirin-pretreated LPS-treated macrophages; for IC50: aspirin-pretreated, 24 h LPS-treated macrophages
T1 construct: prior to the addition of LPS for 24 h to induce COX-2; endogenous in cells; host or cells: Bone marrow-derived macrophages from C57BL/6J mice, aspirin-pretreated, then LPS 24 h
T1 sequence (Q05769 18-604): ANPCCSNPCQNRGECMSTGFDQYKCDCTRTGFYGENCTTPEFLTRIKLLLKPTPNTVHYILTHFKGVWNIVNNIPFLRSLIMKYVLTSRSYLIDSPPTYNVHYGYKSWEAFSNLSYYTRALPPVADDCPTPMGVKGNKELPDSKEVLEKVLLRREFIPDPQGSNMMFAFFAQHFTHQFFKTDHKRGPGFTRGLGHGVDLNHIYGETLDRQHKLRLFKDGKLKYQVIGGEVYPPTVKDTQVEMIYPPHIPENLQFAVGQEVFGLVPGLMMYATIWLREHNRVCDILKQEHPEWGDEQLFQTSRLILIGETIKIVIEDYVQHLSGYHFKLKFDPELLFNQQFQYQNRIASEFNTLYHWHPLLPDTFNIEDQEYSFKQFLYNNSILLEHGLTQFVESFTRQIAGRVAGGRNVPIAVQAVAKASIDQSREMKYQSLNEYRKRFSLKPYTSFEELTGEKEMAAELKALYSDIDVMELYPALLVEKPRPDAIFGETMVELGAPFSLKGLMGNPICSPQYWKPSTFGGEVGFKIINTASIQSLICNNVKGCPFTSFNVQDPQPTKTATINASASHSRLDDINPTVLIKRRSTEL
Protocol: (A) Illustration for COX-1 activity assay. […] (B) COX-1 activity. […] (C) Illustration for COX-2 activity determination. Macrophages are treated with 10 µM of aspirin (ASA) for 30 min to block basal COX activity, washed, and treated with 10 ng/mL LPS for 24 h to induce COX-2. Cells are then washed and incubated 30 min with 50 µM of the different compounds prior to the addition of 10 µM of AA. The produced PGE2 mainly reflects COX-2 activity. (D) COX-2 activity. Percentage of LPS-treated cells was calculated, and data are represented as mean ± SEM (n = 4); * p < 0.05 versus AA for COX-1 activity, and versus LPS + ASA + AA for COX-2 activity (one-way ANOVA followed by Dunnett’s test).
For both COX-1 and COX-2 assays, the benzofuran compounds were then added to the cells for 30 min prior to the incubation with 10 µM arachidonic acid for another 30 min. PGE2 was then measured using an enzyme immunoassay, as described previously.
IL-6, CCL2, nitrite (for NO), and PGE2 concentrations from 3–5 independent experiments were expressed as percentage of LPS alone and as mean ± SEM. COX activity was determined as percentage of PGE2 produced from exogenous arachidonic acid. Curve fitting and calculation of IC50 values were performed using GraphPad Prism (version 9.5.1 Software, La Jolla, CA, USA).

Structure (SMILES)	IL-6 production in air pouch, ELISA [1]	PGE2 levels in air pouch exudates [1]	number of cells of the air pouch exudates [1]	gene expression of proinflammatory genes (Il1a, Il1b, Ccl3, Ccl4, Ptgs2, Nos2) in air pouch cells ([1]; RT-PCR)	CCL2 formation in air pouch, ELISA [1]	expression of Ccl4 in air pouch cells ([1]; RT-PCR)	effect on COX-2 activity (COX-2)	IC50 (COX-2)
O=C(O)/C=C1/Oc2ccc(Br)cc2C1(F)F [Compound 2]	inhibited	inhibited	significantly reduced	strong inhibition	–	–	–	–
O=C(O)/C=C1\Oc2ccc(Br)cc2C1(F)F [Compound 3]	–	inhibited	significantly reduced	–	inhibited	modestly inhibited	slight reduction	–
O=C(O)Cc1oc2ccc(-c3ccccc3)cc2c1F [Compound 5]	–	–	significantly reduced	–	inhibited	–	strongly reduced; also recorded: direct inhibitory effect	28.1 µM
C=C(C)c1ccc2oc(CC(=O)O)c(F)c2c1 [Compound 6]	inhibited	inhibited	significantly reduced	–	inhibited	modestly inhibited	strongly reduced; also recorded: direct inhibitory effect	13 µM
COC(=O)CC1(O)Oc2ccc(Br)cc2C1(F)F (stereo not drawn) [Compound 8]	–	–	–	–	–	–	without any effect	–
